Source: PubChem BioAssay (NCI)
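Values below derive from 48-hour exposures of cells grown in 96-well plates, with endpoints linearly interpolated between the two concentrations bracketing the appropriate inhibition level. Here, GI50 denotes the concentration required for 50% inhibition of growth. TGI: total growth inhibition.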

Key:
Assay in all cases: inhibition of tumour cell growth, NCI panel, 48 h
CCRF-CEM leukemia = system: CCRF-CEM leukemia
HOP-62 NSCLC = system: HOP-62 NSCLC
SF-539 CNS = system: SF-539 CNS
MALME-3M melanoma = system: MALME-3M melanoma
NCI-H460 lung = system: NCI-H460 lung
SK-MEL-5 melanoma = system: SK-MEL-5 melanoma
K-562 leukemia = system: K-562 leukemia
OVCAR-4 ovarian = system: OVCAR-4 ovarian
COLO 205 colon = system: COLO 205 colon
SK-MEL-2 melanoma = system: SK-MEL-2 melanoma

Structure (SMILES)	TGI (CCRF-CEM leukemia)	TGI (HOP-62 NSCLC)	TGI (SF-539 CNS)	TGI (MALME-3M melanoma)	TGI (NCI-H460 lung)	TGI (SK-MEL-5 melanoma)	TGI (K-562 leukemia)	TGI (OVCAR-4 ovarian)	TGI (COLO 205 colon)	TGI (SK-MEL-2 melanoma)	GI50 (SF-539 CNS)	GI50 (SK-MEL-5 melanoma)	GI50 (K-562 leukemia)	GI50 (CCRF-CEM leukemia)	GI50 (HOP-62 NSCLC)	GI50 (MALME-3M melanoma)	GI50 (OVCAR-4 ovarian)	GI50 (COLO 205 colon)	GI50 (SK-MEL-2 melanoma)
CC(OC(C)(C)C)[C@H](NC(=O)OCC(Cl)(Cl)Cl)C(=O)O (some centres undefined)	> 100 µM	> 100 µM	> 100 µM	> 100 µM	> 100 µM	> 100 µM	> 100 µM	> 100 µM	> 100 µM	> 100 µM	–	–	–	–	–	–	–	–	–
O=C(Cn1c[n+](CC(=O)c2ccc(-c3ccccc3)cc2)c2ccccc21)Nc1cccc2cccnc12	–	–	3.06 µM	–	–	3.11 µM	> 100 µM	–	–	–	1620 nM	1730 nM	639 nM	–	–	–	–	–	–
O=C(O)CCC(NC(=O)c1ccc(Nc2nc3cc(C(F)(F)F)ccc3nc2-c2ccccc2)cc1)C(=O)O (centres undefined)	> 100 µM	> 100 µM	> 100 µM	> 100 µM	> 100 µM	> 100 µM	> 100 µM	> 100 µM	> 100 µM	> 100 µM	–	–	–	–	–	–	–	–	–
COc1ccc2cc(/C=N/NC(=O)Nc3ccccc3)ccc2c1	> 100 µM	> 100 µM	–	> 100 µM	> 100 µM	> 100 µM	> 100 µM	> 100 µM	> 100 µM	> 100 µM	–	–	–	–	–	–	–	–	–
CC1(CCOCc2ccccc2)NC(=O)NC1=O (centres undefined)	–	> 100 µM	–	> 100 µM	> 100 µM	> 100 µM	> 100 µM	> 100 µM	–	> 100 µM	–	–	–	–	–	–	–	–	–
CC1(C)N=C(N)N=C(N)N1c1ccc(CCc2ccccc2)cc1	> 100 µM	–	82.8 µM	> 80.2 µM	> 100 µM	9.63 µM	> 100 µM	> 100 µM	24.1 µM	> 100 µM	–	–	–	–	–	–	–	–	–
NCc1ccccc1-c1c2nc(c(-c3ccccc3CN)c3ccc([nH]3)c(-c3ccccc3CN)c3nc(c(-c4ccccc4CN)c4ccc1[nH]4)C=C3)C=C2	27.1 µM	60.4 µM	–	–	66.7 µM	63.7 µM	35.5 µM	51.2 µM	97.7 µM	73.9 µM	–	–	–	–	–	–	–	–	–
CCC(/C=C/C1OC(=O)C=CC1C)=C\C(C)C/C=C/C(C)=C/C(C)C(=O)C(C)C(O)C(C)C/C(C)=C/C(=O)O (centres undefined)	–	–	–	6.29 µM	–	–	–	–	–	–	0.00202 nM	408 nM	< 0.001 nM	< 1 pM	0.0236 nM	0.217 nM	< 1 pM	7.52 pM	0.0281 nM
Cc1[nH]nc(C(F)(F)F)c1N=NN1CCOCC1	10.8 µM	28.5 µM	28.6 µM	31.3 µM	17.1 µM	12.8 µM	2.4 µM	15.1 µM	11.9 µM	27.1 µM	–	–	–	–	–	–	–	–	–
